Assay results taken from patent US9452985B2, “Tau imaging probe” (GE Healthcare Limited, priority 2010, dated 2016).
Where a name gives a salt, the structure may show the parent alone.

Test system: neurofibrillary tangles
Experiment: Staining test on brain section of Alzheimer's disease patients
Assay type: binding, human
Settings: 100 μM solution in 50% ethanol, 10 minutes, fluorescence microscope
From the text: The procedure of staining test on the compounds of the present invention on the brain section of Alzheimer's disease patients is described below:
(1) We used the brain specimens of the temporal lobe or hippocampus from patients who were definitely diagnosed as having Alzheimer's disease pathology. The specimens were obtained from Choju Medical Institute, Fukushimura Hospital, our collaborating research institute, and the consent for use for research purposes was obtained from the patients' bereaved family (Fukushimura Hospital, Ethics Committee Approval No. 20).
(2) The paraffin-embedded brain tissue was sliced to 6 or 8 μm thickness, extended on a slide glass, and dried. The paraffinized brain section was deparaffinized by washing with xylene for 10 minutes×2, 100% ethanol for 5 minutes×2, 90% ethanol for 5 minutes, and running water for 10 minutes in this order.
(3) As a pretreatment for staining with the compounds of the present invention, the treatment to remove autofluorescence with lipofuscin was performed. First, the paraffinized brain section was immersed in 0.25% KMnO4 solution for 20 minutes. It was washed with PBS for 2 minutes twice, immersed in a 0.1% K2S2O5/oxalic acid solution for approximately 5 minutes, and further washed with PBS for 2 minutes 3 times.
(4) From 100 μM solution of the compounds of the present invention dissolved in 50% ethanol, approximately 150 μl was dropped on the section to react for 10 minutes. After being immersed in tap water 5 times, it was mounted with Flour Save Reagent (Calbiochem) and examined with a fluorescence microscope (Nikon, ECLIPSE 80i). The images were taken with a digital camera (Nikon, Dxin1200F or Photometrics, Cool SNAP ES).

Structure (SMILES)	binding to neurofibrillary tangles in the brain section of Alzheimer's disease patients (staining test)
Nc1ccc(-c2ccc3ccc(OC(CO)CF)cc3n2)cn1 (stereo not drawn) [THK-932, 2-(2-aminopyrid-5-yl)-7-(1-fluoromethyl-2-hydroxyethoxy)quinoline]	bind to neurofibrillary tangles specifically and selectively
CCN(CC)c1ccc(-c2ccc3cc(OC(CO)CF)ccc3n2)cc1 (stereo not drawn) [THK-5035, 2-(4-diethylaminophenyl)-6-(1-fluoromethyl-2-hydroxy)quinoline]	bind to neurofibrillary tangles specifically and selectively
CCN(CC)c1ccc(-c2ccc3ccc(OCC(O)CF)cc3n2)cc1 (stereo not drawn) [THK-5038, 2-(4-diethylaminophenyl)-7-(2-fluoromethyl-2-hydroxyethoxy)quinoline]	bind to neurofibrillary tangles specifically and selectively
CCN(CC)c1ccc(-c2ccc3ccc(OC(CO)CF)cc3n2)cc1 (stereo not drawn) [THK-5058, 2-(4-diethylaminophenyl)-7-(1-fluoromethyl-2-hydroxyethoxy)quinoline]	bind to neurofibrillary tangles specifically and selectively
CCN(CC)c1ccc(-c2cc(OCC(O)CF)c3ccccc3n2)cc1 (stereo not drawn) [THK-5059, 2-(4-diethylaminophenyl)-4-(3-fluoro-2-hydroxypropoxy)quinoline]	bind to neurofibrillary tangles specifically and selectively
CCN(CC)c1ccc(-c2ccc3c(OC(CO)CF)cccc3n2)cc1 (stereo not drawn) [THK-5064, 2-(4-diethylaminophenyl)-5-(1-fluoromethyl-2-hydroxyethoxy)quinoline]	bind to neurofibrillary tangles specifically and selectively
CCN(CC)c1ccc(-c2nc3ccccc3cc2OC(CO)CF)cc1 (stereo not drawn) [THK-5065, 2-(4-diethylaminophenyl)-3-(1-fluoromethyl-2-hydroxyethoxy)quinoline]	bind to neurofibrillary tangles specifically and selectively
CCN(CC)c1ccc(-c2ccc3cccc(OCC(O)CF)c3n2)cc1 (stereo not drawn) [THK-5066, 2-(4-diethylaminophenyl)-8-[(3-fluoro-2-hydroxy)propoxy]quinoline]	bind to neurofibrillary tangles specifically and selectively
CN(C)c1ccc(-c2ccc3ccc(OC(CO)CF)cc3n2)cc1 (stereo not drawn) [THK-5071, 2-(4-fluoromethyl-2-hydroxyethoxy)-2-(4-dimethylaminophenyl)quinoline]	bind to neurofibrillary tangles specifically and selectively
Nc1ccc2ccc(-c3ccc(F)cc3)nc2c1 [THK-5075, 7-amino-2-(4-fluorophenyl)quinoline]	bind to neurofibrillary tangles specifically and selectively
CN(C)c1ccc2ccc(-c3ccc(F)cc3)nc2c1 [THK-5076, 2-(4-fluorophenyl)-7-dimethylaminoquinoline]	bind to neurofibrillary tangles specifically and selectively
CNc1ccc(-c2ccc3ccc(OC(CO)CF)cc3n2)cc1 (stereo not drawn) [THK-5077, 7-(1-fluoromethyl-2-hydroxyethoxy)-2-(4-methylaminophenyl)quinoline]	bind to neurofibrillary tangles specifically and selectively
Nc1cccc2nc(-c3ccc(F)cc3)ccc12 [THK-5079, 5-amino-2-(4-fluorophenyl)quinoline]	bind to neurofibrillary tangles specifically and selectively
CN(C)c1cccc2nc(-c3ccc(F)cc3)ccc12 [THK-5080, 2-(4-fluorophenyl)-5-dimethylaminoquinoline oxalate]	bind to neurofibrillary tangles specifically and selectively
Nc1cccc2ccc(-c3ccc(F)cc3)nc12 [THK-5081, 8-amino-2-(4-fluorophenyl)quinoline]	bind to neurofibrillary tangles specifically and selectively
CN(C)c1cccc2ccc(-c3ccc(F)cc3)nc12 [THK-5082, 2-(4-fluorophenyl)-8-dimethylaminoquinoline]	bind to neurofibrillary tangles specifically and selectively
Nc1ccc2nc(-c3ccc(F)cc3)ccc2c1 [THK-5086, 6-amino-2-(4-fluorophenyl)quinoline]	bind to neurofibrillary tangles specifically and selectively
CN(C)c1ccc2nc(-c3ccc(F)cc3)ccc2c1 [THK-5087, 2-(4-fluorophenyl)-6-dimethylaminoquinoline]	bind to neurofibrillary tangles specifically and selectively
CCN(CC)c1ccc2nc(-c3ccc(F)nc3)ccc2c1 [THK-5088, 6-diethylamino-2-(2-fluoropyrid-5-yl)quinoline]	bind to neurofibrillary tangles specifically and selectively
CCNc1cccc2nc(-c3ccc(F)nc3)ccc12 [THK-5091, 5-ethylamino-2-(2-fluoropyrid-5-yl)quinoline]	bind to neurofibrillary tangles specifically and selectively
CCN(CC)c1cccc2nc(-c3ccc(F)nc3)ccc12 [THK-5092, 5-diethylamino-2-(2-fluoropyrid-5-yl)quinoline]	bind to neurofibrillary tangles specifically and selectively
CCN(CC)c1ccc2ccc(-c3ccc(F)nc3)nc2c1 [THK-5097, 7-diethylamino-2-(2-fluoropyrid-5-yl)quinoline]	bind to neurofibrillary tangles specifically and selectively
CNc1ccc(-c2ccc3ccc(OCC(O)CF)cc3n2)cc1 (stereo not drawn) [THK-5106, 7-[(3-fluoro-2-hydroxy)propoxy]-2-(4-methylaminophenyl)quinoline]	bind to neurofibrillary tangles specifically and selectively
CN(C)c1ccc(-c2ccc3ccc(OCC(O)CF)cc3n2)cc1 (stereo not drawn) [THK-5107, 7-[(3-fluoro-2-hydroxy)propoxy]-2-(4-dimethylaminophenyl)quinoline]	bind to neurofibrillary tangles specifically and selectively
CCN(C)c1ccc(-c2ccc3ccc(OCC(O)CF)cc3n2)cc1 (stereo not drawn) [THK-5112, 2-(4-ethylmethylaminophenyl)-7-[(3-fluoro-2-hydroxy)propoxy]quinoline]	bind to neurofibrillary tangles specifically and selectively
CN(C)c1ccc2nc(-c3ccc(N)c(F)c3)ccc2c1 [THK-5128, 2-(4-amino-3-fluorophenyl)-6-dimethylaminoquinoline]	bind to neurofibrillary tangles specifically and selectively
CN1CCOc2cc(-c3ccc4cc(OCC(O)CF)ccc4n3)cnc21 (stereo not drawn) [THK-5136, 6-[(3-fluoro-2-hydroxy)propoxy]-2-(4-methyl-3,4-dihydro-2H-pyrido[3,2-b][1,4]oxazin-7-yl)quinoline]	bind to neurofibrillary tangles specifically and selectively
